What was measured:
Erk1 = Erk1 (Homo sapiens (Human), UniProt P27361); experiment: Protein Mass Modification Assay (intact protein MALDI); assay type: binding
Outline: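 Percent covalent modification comes from the intact-protein MALDI centroid mass shift, treated versus control, divided by compound MW. Before analysis, human Erk1 was exposed to compound at 10-fold excess over protein for 60 min at room temperature.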

MEK1 activated ERK1 = MEK1 activated ERK1 (Homo sapiens (Human), UniProt P27361); experiment: Omnia continuous-read kinase assay for potency against MEK1 activated ERK1; assay type: biochemical; conditions: MEK1 activated ERK1, WT, ATP at KM
Outline: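 Apparent IC50 came from initial reaction slopes (RFU vs time) plotted against log inhibitor with a variable-slope fit. Reactions were started with ERK1 (4 nM final) added to 50 μM ATP, roughly at its appKM, and 10 μM Sox-conjugated ST17 peptide in 20 mM Tris pH 7.5, 5 mM MgCl2. Fluorescence was monitored every 71 seconds.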

Erk1, sequence (P27361 whole entry, looked up): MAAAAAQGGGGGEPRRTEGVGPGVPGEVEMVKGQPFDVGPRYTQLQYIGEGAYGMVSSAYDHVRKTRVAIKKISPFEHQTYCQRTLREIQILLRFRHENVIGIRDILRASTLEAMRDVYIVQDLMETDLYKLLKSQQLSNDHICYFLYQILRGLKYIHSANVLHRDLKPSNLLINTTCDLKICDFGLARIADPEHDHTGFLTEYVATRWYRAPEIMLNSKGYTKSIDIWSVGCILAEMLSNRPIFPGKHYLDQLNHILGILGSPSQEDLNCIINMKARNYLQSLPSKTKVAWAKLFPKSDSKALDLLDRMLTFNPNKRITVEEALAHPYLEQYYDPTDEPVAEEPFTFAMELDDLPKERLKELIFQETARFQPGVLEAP
MEK1 activated ERK1, sequence (P27361 whole entry): as the sequence (P27361 whole entry, looked up) above

Compound	ERK1 Mass Mod (%) (Erk1)	IC50 (MEK1 activated ERK1) [nM]
C=CC(=O)Nc1cc(OC)ccc1Nc1nc(Nc2ccc(N3CCNCC3)cc2OC)ncc1Cl [Compound I-162, N-(2-((5-chloro-2-((2-methoxy-4-(piperazin-1-yl)phenyl)amino)pyrimidin-4-yl)amino)-5-methoxyphenyl)acrylamide]	E (provided a mass modification of ≧70%)	> 1000
C=CC(=O)Nc1cc(OC)ccc1Nc1nc(Nc2ccc(N3CC[C@H](O)C3)cc2C#N)ncc1Cl [Compound I-165, (S)—N-(2-((5-chloro-2-((2-cyano-4-(3-hydroxypyrrolidin-1-yl)phenyl)amino)pyrimidin-4-yl)amino)-5-methoxyphenyl)acrylamide]	F (provided a mass modification of 31-69%)	> 1000
C=CC(=O)Nc1ccccc1Nc1nc(Nc2ccc(N(CCNC(=O)OC(C)(C)C)C(C)=O)cc2C(F)(F)F)ncc1Cl [Compound I-170, tert-butyl (2-(N-(4-((4-((2-acrylamidophenyl)amino)-5-chloropyrimidin-2-yl)amino)-3-(trifluoromethyl)phenyl)acetamido)ethyl)carbamate]	E (provided a mass modification of ≧70%)	> 1000
C=CC(=O)Nc1ccccc1Nc1nc(Nc2ccc(N3CCC[C@H]3CO)cc2C#N)ncc1Cl [Compound I-172, (S)—N-(2-((5-chloro-2-((2-cyano-4-(2-(hydroxymethyl)pyrrolidin-1-yl)phenyl)amino)pyrimidin-4-yl)amino)phenyl)acrylamide]	F (provided a mass modification of 31-69%)	> 1000
C=CC(=O)Nc1ccccc1Nc1nc(Nc2ccc(OCCOC)cc2OC)ncc1Cl [Compound I-182, N-(2-((5-chloro-2-((2-methoxy-4-(2-methoxyethoxy)phenyl)amino)pyrimidin-4-yl)amino)phenyl)acrylamide]	E (provided a mass modification of ≧70%)	> 1000
C=CC(=O)N[C@@H]1CCCC[C@H]1Nc1nc(Nc2cc(C(=O)NOC)ccc2C)ncc1Cl [Compound I-190, 3-((4-(((1R,2R)-2-acrylamidocyclohexyl)amino)-5-chloropyrimidin-2-yl)amino)-N-methoxy-4-methylbenzamide]	F (provided a mass modification of 31-69%)	> 1000

Second part, the compound after the results:

ERK1 Mass Mod (%) (Erk1)	IC50 (MEK1 activated ERK1) [nM]	Compound
E (provided a mass modification of ≧70%)	> 1000	C=CC(=O)Nc1ccccc1Nc1nc(Nc2ccc(N3CCC[C@@H]3CO)cc2C#N)ncc1Cl [Compound I-171, (R)—N-(2-((5-chloro-2-((2-cyano-4-(2-(hydroxymethyl)pyrrolidin-1-yl)phenyl)amino)pyrimidin-4-yl)amino)phenyl)acrylamide]
E (provided a mass modification of ≧70%)	> 1000	C=CC(=O)Nc1ccccc1Nc1nc(Nc2ccc(NC(=O)OC)cc2OC)ncc1Cl [Compound I-184, methyl (4-((4-((2-acrylamidophenyl)amino)-5-chloropyrimidin-2-yl)amino)-3-methoxyphenyl)carbamate]
G (proived a mass modification ≦30%)	> 1000	C=CC(=O)NCc1ccccc1Nc1nc(Nc2cc(C(N)=O)ccc2C)ncc1Cl [Compound I-189, 3-((4-((2-(acrylamidomethyl)phenyl)amino)-5-chloropyrimidin-2-yl)amino)-4-methylbenzamide]
E (provided a mass modification of ≧70%)	< 100	C=CC(=O)Nc1ccccc1Nc1nc(Nc2cc(C(=O)NOC)ccc2C)ncc1Cl [Compound I-191, 3-((4-((2-acrylamidophenyl)amino)-5-chloropyrimidin-2-yl)amino)-N-methoxy-4-methylbenzamide]
E (provided a mass modification of ≧70%)	< 100	C=CC(=O)Nc1ccccc1Nc1nc(Nc2cc(C(N)=O)ccc2C#N)ncc1Cl [Compound I-192, 3-((4-((2-acrylamidophenyl)amino)-5-chloropyrimidin-2-yl)amino)-4-cyanobenzamide]
